Key:
Neuro-2a cells = assay: Metabolism of apoE-enriched β-VLDL by Neuro-2a cells; assay type: cell-based, mouse; conditions: for enhancement of cell association of β-VLDL: 125I-β-VLDL enriched with apoE; for cell association: purified 125I-apoE-enriched β-VLDL; for increase of cellular cholesterol content: β-VLDL enriched with apoE, compared with β-VLDL alone
Protocol: Rabbit β-VLDL (d<1.006 g/ml) were isolated from the plasma of New Zealand White rabbits fed a high-fat, high-cholesterol diet for 4 days. The ratio of cholesterol to protein in this β-VLDL ranged from ˜15 to 20:1. Human apoE-enriched β-VLDL were prepared by incubating apoE with β-VLDL at 37° C. for 1 h. For some experiments, the apoE-enriched β-VLDL were reisolated by fast-performance liquid chromatography as follows. Either ^125I-β-VLDL and unlabeled apoE or ^125I-apoE and unlabeled β-VLDL were mixed in a 1:1.5 ratio of β-VLDL protein to apoE and incubated at 37° C. for 1 h. The mixture (250 μl) was then fractionated by chromatography on a Superose 6 column (Pharmacia Fine Chemicals, Uppsala, Sweden, 10/50 HR). The flow rate was 0.5 ml/min, and 0.5 ml fractions were collected. The elution profile was monitored by quantitation of ^125I and cholesterol.
Cultured cells were grown to ˜100% confluence, washed twice with fresh serum-free medium, and incubated at 37° C. with apoE-enriched β-VLDL. Before addition to the cells, the β-VLDL and apoE were incubated together (5 and 7.5 μg of protein, respectively, unless otherwise indicated) for 1 h at 37° C. Some cells were incubated with 50 μM chloroquine, and inhibitor of lysosomal protease, at 37° C. for 2 h before addition of the apoE-enriched β-VLDL. At the times indicated, the cells were placed on ice, and the medium was assayed for protein degradation products. For the cell association studies, Neuro-2a cells were washed five times on ice with 0.1 M PBS containing 0.2% bovine serum albumin and once with 0.1 M PBS. Cell-associated ligand represents both bound and internalized material. The fibroblasts were washed three times with DMEM-Hepes on ice and incubated with 10 mM suramin at 4° C. for 30 min to remove surface-bound ligand. The radioactivity remaining within the cells represents that which was “internalized.” After washing, the cells were dissolved in 0.1 N NaOH for measurement of radioactivity and protein concentration.
The cells were then washed and solubilized with 0.1 N NaOH, and the cell-associated DiI, which is proportional to the total amount of lipoprotein metabolized (bound, internalized, and degraded), was assayed.

HSPG-deficient CHO cells = assay: Pulse chase of 125I-apoE+β-VLDL, HSPG-deficient CHO cells; assay type: cell-based, Chinese hamster
Protocol: (§1) Cultured cells were grown to ˜100% confluence, placed on ice, and washed twice with cold DMEM-Hepes. The cells were then incubated with ^125I-apoE+β-VLDL at 4° C. for 1 h to allow for cell-surface binding (zero time bound ligand). Cells were rinsed three times with cold F12 medium to remove unbound ligands. Prewarmed F12 medium was added; and the cells were incubated at 37° C. for the times indicated. At each point, the cells were again placed on ice, and the culture medium was collected. To 0.5 ml of medium was added 0.4 ml of 0.2% bovine serum albumin (Sigma) and 0.4 ml of 50% trichloroacetic acid (TCA). The medium was then incubated at 4° C. for 30 min and centrifuged at 3,000 rpm for 10 min. The supernatant was collected for ^125I-apoE degradation assay, and the pellet was counted as TCA-precipitable intact ^125I-apoE. The cells were washed once with cold DMEM-Hepes, incubated with 10 mM suramin on ice in a cold room for 30 min, and then dissolved in 0.1 N NaOH. Cellular radioactivity (internalized apoE) was measured with a gamma counter, and protein concentration was determined by Lowry's method.

B103-neo cells = assay: Cell association and degradation of 125I-Aβ40 by B103-neo cells; assay type: cell-based, rat; conditions: 125I-Aβ1-40 350 pg/ml with apoE, 24-h incubation
Protocol: Cell Association and Degradation of ^125I-Aβ40 by Neo-transfected B103 Cells. […] Culture medium was collected after 24 h, and the degradation products of ^125I-Aβ40 in the medium were assayed as described. Goldstein et al al. ((1983) Methods Enzymol. 98:241-250). The cells were washed five times on ice with phosphate-buffered saline (PBS) containing 0.2% bovine serum albumin and once with PBS and lysed by 0.1 N NaOH. The cell-associated ^125I-Aβ40 was determined by counting the radioactivity in the cell lysate.
The cell association and degradation of Aβ were measured after a 24-h incubation, as described in Methods, above.

wild-type CHO cells = assay: Pulse chase of 125I-apoE+β-VLDL, wild-type CHO cells; assay type: cell-based, Chinese hamster; conditions: for Total: recovery in the fractions; for bound to the cells at 4° C. (zero time): wild-type CHO cells
Protocol: as §1
To evaluate these possibilities, we conducted a modified A pulse-chase@ study in which CHO cells were incubated with ^125I-apoE-enriched β-VLDL for 1 h at 4° C., washed to remove unbound lipoproteins, and then warmed to 37° C. for various times to follow internalization, degradation, and retention (see Materials and Methods). At the specific times, the medium was removed for analysis of both degradation products (degraded apoE) and TCA-precipitable proteins (released intact apoE), and the cells were washed with suramin (suramin-releasable apoE) and then counted (internalized apoE).

Substance | enhancement of cell association of β-VLDL (Neuro-2a cells) | cell association (Neuro-2a cells; 2 h) | cell association (Neuro-2a cells; 4 h) | increase of cellular cholesterol content (Neuro-2a cells) | bound to the cells (HSPG-deficient CHO cells) | Cell association of 125I-Aβ1-40 (B103-neo cells) | Degradation of 125I-Aβ1-40 (B103-neo cells) | Total (wild-type CHO cells; 30 min) | Degraded (wild-type CHO cells; 30 min at 37° C.) | Internalized (retained) (wild-type CHO cells; 30 min at 37° C.) | Suramin-releasable (cell surface) (wild-type CHO cells; 30 min at 37° C.) | TCA-precipitable (released intact) (wild-type CHO cells; 30 min at 37° C.) | Total (wild-type CHO cells; 60 min) | Degraded (wild-type CHO cells; 60 min at 37° C.) | Internalized (retained) (wild-type CHO cells; 60 min at 37° C.) | Suramin-releasable (cell surface) (wild-type CHO cells; 60 min at 37° C.) | TCA-precipitable (released intact) (wild-type CHO cells; 60 min at 37° C.) | Total (wild-type CHO cells; 120 min) | Degraded (wild-type CHO cells; 120 min at 37° C.) | Internalized (retained) (wild-type CHO cells; 120 min at 37° C.) | also measured
apoE3: human apolipoprotein E3 isoform, also iodinated | ~1.7 fold | 58 ng/mg of cell protein | 101 ng/mg of cell protein | ~1.5 fold | 77 ng/mg of cell protein | 10.8 ± 2.5 fmol/mg cell protein | 88.0 ± 6.7 fmol/mg cell protein | 399 ng/mg cell protein | 15 ng/mg cell protein | 157 ng/mg cell protein | 45 ng/mg cell protein | 182 ng/mg cell protein | 377 ng/mg cell protein | 34 ng/mg cell protein | 123 ng/mg cell protein | 39 ng/mg cell protein | 181 ng/mg cell protein | 367 ng/mg cell protein | 45 ng/mg cell protein | 78 ng/mg cell protein | Suramin-releasable (cell surface) (wild-type CHO cells; 120 min at 37° C.): 12 ng/mg cell protein; TCA-precipitable (released intact) (wild-type CHO cells; 120 min at 37° C.): 232 ng/mg cell protein; bound to the cells at 4° C. (zero time) (wild-type CHO cells): 399 ng/mg of cell protein
apoE4: human apolipoprotein E4 isoform, also iodinated | ~1.7 fold | 39 ng/mg of cell protein | 65 ng/mg of cell protein | ~1.7 fold | 75 ng/mg of cell protein | 14.7 ± 2.5 fmol/mg cell protein | 80.8 ± 22.9 fmol/mg cell protein | 368 ng/mg cell protein | 12 ng/mg cell protein | 84 ng/mg cell protein | 27 ng/mg cell protein | 245 ng/mg cell protein | 338 ng/mg cell protein | 35 ng/mg cell protein | 55 ng/mg cell protein | 10 ng/mg cell protein | 238 ng/mg cell protein | 305 ng/mg cell protein | 43 ng/mg cell protein | 27 ng/mg cell protein | Suramin-releasable (cell surface) (wild-type CHO cells; 120 min at 37° C.): 10 ng/mg cell protein; TCA-precipitable (released intact) (wild-type CHO cells; 120 min at 37° C.): 225 ng/mg cell protein; bound to the cells at 4° C. (zero time) (wild-type CHO cells): 378 ng/mg of cell protein
